Measured values: the supplement of paper PMC10790783

test system: MRC5-hT fibroblasts expressing HCMV UL38 (glucose-free medium); assay: rescue of cell number (AUC of dose-response) relative to untreated glucose-free control; higher = stronger protection from glucose-starvation-induced cell death; conditions: glucose: 0 (glucose-free DMEM); 96 h; dose range 0.001-20, 10-point curve µM
Protocol: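 MRC5-hT fibroblasts stably expressing HCMV UL38 were seeded in 384-well plates, serum-starved for 24 h, switched to glucose-free DMEM, and pin-transferred with a metabolism-focused compound library as 10-point dose curves (1 nM to 20 µM; n=2). Nuclei were counted by Hoechst imaging 96 h after glucose withdrawal.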

In order of rising “rescue of cell number” value:
1. [N-]=[N+]=[N-] [Sodium_Azide]  -38.1%
2. O=S(=O)(O)CCSSCCS(=O)(=O)O [Dimesna]  -37.8%
3. OCC(CO)N[C@H]1C[C@](O)(CO)[C@@H](O)[C@H](O)[C@H]1O [Voglibose]  -36.2%
4. OC[C@H]1O[C@@H](c2ccc(F)c(Cc3cc4ccccc4s3)c2)[C@H](O)[C@@H](O)[C@@H]1O [Ipragliflozin]  -33.8%
5. O=C(Nc1cccc(C(F)(F)F)c1)Nc1cc(S(=O)(=O)NC2CC2)ccc1-c1ccsc1 [AGI_6780]  -23.4%
6. [N-]=[N+]=CC(=O)OC[C@H](N)C(=O)O [Azaserine]  -20.4%
7. O=C(O)Cc1ccccc1Nc1c(Cl)cccc1Cl [Diclofenac]  -20%
8. CC/C=C\C[C@H]1C(=O)CC[C@@H]1CC(=O)O [Jasmonate]  -19.1%
9. CC(c1cc2ccccc2s1)N(O)C(N)=O (stereo not given) [Zileuton]  -16.9%
10. C[S+]([O-])CCCCN=C=S (stereo not given) [Sulforaphane]  -10.7%
11. C/C(O)=C(\C#N)C(=O)Nc1ccc(C(F)(F)F)cc1 [Teriflunomide]  -6.67%
12. CN1Cc2c(N)cccc2C(c2ccccc2)C1 (stereo not given) [Nomifensine]  -5.61%
13. Cc1onc(C(=O)N2CCN(C(c3ccc(Cl)cc3)c3ccc(Cl)cc3)CC2)c1[N+](=O)[O-] [ML-210]  -2.73%
14. C=CCN(C)CCCCCCOc1ccc(C(=O)c2ccc(Br)cc2)c(F)c1 [Ro_48_8071]  -2.22%
15. CN(CCOc1ccc(CC2SC(=O)NC2=O)cc1)c1ccccn1 (stereo not given) [Rosiglitazone]  4.26%
16. O=C(O)CN1C(=O)c2cccc3cccc(c23)C1=O [Alrestatin]  4.91%
17. OC[C@H]1NC[C@H](O)[C@@H](O)[C@@H]1O [1_Deoxynojirimycin]  5.66%
18. Cc1cc(/C=C/c2ccc3cc(N(C)C)ccc3[n+]2C)c(C)n1-c1ccccc1 [Pyrvinium_pamoate]  5.84%
19. C[C@H]1[C@H](OC(=O)CCC(=O)O)O[C@@H]2O[C@@]3(C)CC[C@H]4[C@H](C)CC[C@@H]1[C@@]24OO3 [Artesunate]  9.86%
20. CC1(C)C(N(O)C(=O)Nc2ccc(Cl)cc2)N(c2ccc(Cl)cc2)C(=O)N1CC(=O)NN=CC=Cc1ccc([N+](=O)[O-])o1 (stereo not given) [Eeyarestatin_I]  11.4%
21. Cc1nccn1-c1ccc(Sc2cccc(C3(C(N)=O)CCOCC3)c2)cc1  13%
22. O=C(O)[C@@]1(CCCCCCOc2ccc(Cl)cc2)CO1 [(R)_(+)_Etomoxir_sodium_salt]  17.7%
23. CCCCCCCCCCCCC/C=C/[C@@H](O)[C@H](CO)N(C)C [N_N_Dimethylsphingosine]  18.1%
24. CC(=O)c1ccc2c(c1)Nc1ccccc1S2 [ML_171]  23%
25. CC(=O)Oc1ccccc1C(=O)O [Aspirin]  25.2%
26. O=C(/C=C/c1cccnc1)NCCCCC1CCN(C(=O)c2ccccc2)CC1 [FK_866]  26.9%
27. CC(C)(C#N)c1cc(Cn2cncn2)cc(C(C)(C)C#N)c1 [Anastrozole]  29.4%
28. Cc1cccc(CN2CCN(C(c3ccccc3)c3ccc(Cl)cc3)CC2)c1 (stereo not given) [Meclizine]  31.4%
29. NCCOCCOCCNC(=O)Cc1ccc(Nc2nc(NCc3ccc(F)cc3)nc(NCC3CCCCC3)n2)cc1 [AP-III-a4]  33.4%
30. C/C=C/C/C=C/CCC(=O)[C@H]1O[C@H]1C(N)=O [Cerulenin]  34.9%
31. NCCc1ccc(S(=O)(=O)F)cc1 [AEBSF]  50.3%
32. O=c1cc(-c2ccc(O)cc2)oc2cc(O)cc(O)c12 [Apigenin]  58%
33. NC(=O)NO [Hydroxyurea]  61.6%
34. NOCC[C@H](N)C(=O)O [L_Canaline]  68%
35. CC1(C)CCC2=C(O1)c1ccccc1C(=O)C2=O [beta_Lapachone]  70.8%
36. Cc1n[nH]c(C)c1Cc1sc2c(c1C(=O)N1C[C@H](O)CO1)c(=O)n(C)c(=O)n2CC(C)C  78.9%
37. Nc1nc(F)nc2c1ncn2[C@@H]1O[C@H](CO)[C@@H](O)[C@@H]1O [Fludarabine]  103%
38. Cc1ccc([C@@H]2O[C@H](CO)[C@@H](O)[C@H](O)[C@H]2O)cc1Cc1ccc(-c2ccc(F)cc2)s1 [Canagliflozin]  108%
39. CN(NC(=O)CC(=O)NN(C)C(=S)c1ccccc1)C(=S)c1ccccc1 [Elesclomol]  111%
40. CCN(CC)C(=S)SSC(=S)N(CC)CC [Disulfiram]  113%
